One assay deals with T1, CFTR (Homo sapiens, UniProt P13569).
T1 construct: endogenous in cells; host or cells: T84 human colonic cells (ECACC)
T1 sequence (P13569 whole entry): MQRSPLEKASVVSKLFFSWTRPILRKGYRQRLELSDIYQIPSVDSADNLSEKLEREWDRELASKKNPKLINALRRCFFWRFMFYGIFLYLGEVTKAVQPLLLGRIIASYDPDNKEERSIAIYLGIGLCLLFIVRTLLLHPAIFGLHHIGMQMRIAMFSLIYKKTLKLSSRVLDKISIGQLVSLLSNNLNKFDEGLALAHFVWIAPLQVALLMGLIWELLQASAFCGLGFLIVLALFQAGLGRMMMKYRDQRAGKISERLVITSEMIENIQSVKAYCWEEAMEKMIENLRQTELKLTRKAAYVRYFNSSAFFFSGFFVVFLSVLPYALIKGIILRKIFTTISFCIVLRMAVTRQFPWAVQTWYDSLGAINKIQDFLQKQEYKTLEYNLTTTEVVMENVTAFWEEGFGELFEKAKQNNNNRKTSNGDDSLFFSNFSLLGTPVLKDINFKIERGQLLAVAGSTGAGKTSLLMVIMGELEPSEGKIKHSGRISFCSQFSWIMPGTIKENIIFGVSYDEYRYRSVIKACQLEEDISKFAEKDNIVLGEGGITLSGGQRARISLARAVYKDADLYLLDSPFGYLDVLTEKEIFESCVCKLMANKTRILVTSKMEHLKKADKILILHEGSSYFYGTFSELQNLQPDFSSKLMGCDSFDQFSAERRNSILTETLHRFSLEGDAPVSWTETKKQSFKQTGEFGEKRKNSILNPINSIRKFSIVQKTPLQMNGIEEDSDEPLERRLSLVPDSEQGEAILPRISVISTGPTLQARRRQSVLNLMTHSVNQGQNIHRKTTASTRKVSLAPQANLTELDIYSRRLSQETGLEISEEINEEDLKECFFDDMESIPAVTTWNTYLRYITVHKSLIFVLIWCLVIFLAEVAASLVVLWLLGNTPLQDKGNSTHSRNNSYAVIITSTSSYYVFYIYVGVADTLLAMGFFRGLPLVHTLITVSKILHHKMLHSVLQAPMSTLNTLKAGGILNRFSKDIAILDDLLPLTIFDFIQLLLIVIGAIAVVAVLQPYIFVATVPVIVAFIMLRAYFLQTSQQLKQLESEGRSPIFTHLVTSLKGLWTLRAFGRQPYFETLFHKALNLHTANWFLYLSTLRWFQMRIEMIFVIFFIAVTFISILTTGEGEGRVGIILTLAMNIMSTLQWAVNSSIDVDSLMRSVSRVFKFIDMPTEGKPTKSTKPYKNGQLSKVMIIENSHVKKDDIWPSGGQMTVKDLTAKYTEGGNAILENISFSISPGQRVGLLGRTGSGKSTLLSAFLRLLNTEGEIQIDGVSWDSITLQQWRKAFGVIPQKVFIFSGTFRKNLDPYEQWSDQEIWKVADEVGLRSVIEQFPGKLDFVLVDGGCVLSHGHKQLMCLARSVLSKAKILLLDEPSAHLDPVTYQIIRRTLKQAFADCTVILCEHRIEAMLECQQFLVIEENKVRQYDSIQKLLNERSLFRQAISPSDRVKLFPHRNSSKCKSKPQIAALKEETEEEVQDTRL
Briefly: T84 assay (FLIPR membrane potential dye, forskolin/IBMX-stimulated CFTR channel activity). The class given is cell-based. Conditions: imidazole and triazole-containing compounds (Tables 13, 14, 14′), read-out: IC50 (μM) (T84 assay). The gist of the method:
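Fluorescence from a membrane potential dye in T84 monolayers (HBSS with 10 mM Hepes) is followed each second for 150 s. Cells are exposed to test compound during the 45 min dye loading, then challenged with forskolin (10 μM) and IBMX (100 μM) to open CFTR. Inhibitors suppress the depolarization-driven fluorescence increase.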
Consider `CC(NC(=O)c1ncn(-c2cc(Cl)c(O)c(Cl)c2)n1)c1ccc(Br)cc1` (stereo not drawn) [32i, N-(1-(4-bromophenyl)ethyl)-1-(3,5-dichloro-4-hydroxyphenyl)-1H-1,2,4-triazole-3-carboxamide], for which the IC50 – broadly, the concentration that inhibits the measured activity by half – was 10.3 µM.
On the same count and under the same terms, the value for `CN(Cc1ccc(OC(F)(F)F)cc1)C(=O)c1ncn(-c2cc(Cl)c(O)c(Cl)c2)n1` [7i, 1-(3,5-dichloro-4-hydroxyphenyl)-N-methyl-N-(4(trifluoromethoxy)benzyl)-1H-1,2,4-triazole-3-carboxamide] was 15.7 µM; that for `O=C(NCc1cccc(-n2cccn2)c1)c1ncn(-c2cc(Cl)c(O)c(Cl)c2)n1` [46i] was 28.6 µM; that for `O=C(NCc1ccccc1OC(F)F)c1ncn(-c2cc(Cl)c(O)c(Cl)c2)n1` [41i, 1-(3,5-dichloro-4-hydroxyphenyl)-N-(2-(difluoromethoxy)benzyl)-1H-1,2,4-triazole-3-carboxamide] was 22.4 µM.
Same read-out and setting: the value for `O=C(NCc1ccc(N2CCCCC2)cc1)c1ncn(-c2cc(Cl)c(O)c(Cl)c2)n1` [45i, 1-(3,5-dichloro-4-hydroxyphenyl)-N-(4-(piperidin-1-yl)benzyl)-1H-1,2,4-triazole-3-carboxamide] was 8.22 µM; that for `CC(C)(C)CCN(Cc1cccc(C(F)(F)F)c1)C(=O)c1ncn(-c2cc(Cl)c(O)c(Cl)c2)n1` [79i, 1-(3,5-dichloro-4-hydroxyphenyl)-N-(3,3-dimethylbutyl)-N-(3-(trifluoromethyl)benzyl)-1H-1,2,4-triazole-3-carboxamide] was 2.23 µM; that for `O=C(NCc1cccc(-c2ccccc2)c1)c1ncn(-c2cc(Cl)c(O)c(Cl)c2)n1` [25i, N-(biphenyl-3-ylmethyl)-1-(3,5-dichloro-4-hydroxyphenyl)-1H-1,2,4-triazole-3-carboxamide] was 3.7 µM.

Still in this assay, the particulars now being: isoxazole-containing compounds (Table 10, 10′, 11, 11′), read-out: IC50.
In the case of `CN(Cc1ccc2c(c1)OCO2)C(=O)c1cc(-c2cc(Cl)c(O)c(Cl)c2)on1` [8g, N-(benzo[d][1,3]dioxol-5-ylmethyl)-5-(3,5-dichloro-4-hydroxyphenyl)-N-methylisoxazole-3-carboxamide], the half-inhibitory concentration (IC50) was found to be 14.6 µM.
On to `CN(Cc1cccc(C(F)(F)F)c1)C(=O)c1cc(-c2cc(Br)c(O)c(Br)c2)on1` [3g, 5-(3,5-dibromo-4-hydroxyphenyl)-N-methyl-N-(3-(trifluoromethyl)benzyl)isoxazole-3-carboxamide], for which the IC50 stood at 16.6 µM.
On the same count and under the same terms, the value for `O=C(c1cc(-c2cc(Cl)c(O)c(Cl)c2)on1)N1CCC(Cc2ccccc2)CC1` [12g, (4-benzylpiperidin-1-yl)(5-(3,5-dichloro-4-hydroxyphenyl)isoxazol-3-yl)methanone] was 6.51 µM; that for `CN(Cc1ccccc1)C(=O)c1cc(-c2cc(Br)c(O)c(Br)c2)on1` [1g, N-Benzyl-5-(3,5-dibromo-4-hydroxyphenyl)-N-methylisoxazole-3-carboxamide] was 7.65 µM.

The same assay, now with this note: oxadiazole-containing compounds (a series), average of at least 2 runs unless annotated n = 1, read-out: IC50.
Take `O=C(NC(c1ccccc1)c1ccccc1)c1nc(-c2cc(Br)c(O)c(Br)c2)no1` [5a, N-benzhydryl-3-(3,5-dibromo-4-hydroxyphenyl)-1,2,4-oxadiazole-5-carboxamide]: the IC50 was determined as 5.23 µM.
The same measure, in the same setting: the value for `O=C(NCc1cccc(OCc2ccccc2)c1)c1nc(-c2cc(Cl)c(O)c(Cl)c2)no1` [141a, N-(3-(benzyloxy)benzyl)-3-(3,5-dichloro-4-hydroxyphenyl)-1,2,4-oxadiazole-5-carboxamide] was 7.79 µM; that for `CC(C)(C)c1ccc(CNC(=O)c2nc(-c3cc(Cl)c(O)c(Cl)c3)no2)cc1` [136a, N-(4-tert-butylbenzyl)-3-(3,5-dichloro-4-hydroxyphenyl)-1,2,4-oxadiazole-5-carboxamide] was 2.95 µM.
Same read-out and setting: the value for `O=C(NCc1ccc(F)c(C(F)(F)F)c1)c1noc(-c2cc(Cl)c(O)c(Cl)c2)n1` [159a, 5-(3,5-dichloro-4-hydroxyphenyl)-N-(4-fluoro-3-(trifluoromethyl)benzyl)-1,2,4-oxadiazole-3-carboxamide] was 4.83 µM.
On to `O=C(NCc1ccc(F)c(C(F)(F)F)c1)c1nc(-c2cc(Cl)c(O)c(Cl)c2)no1` [146a, 3-(3,5-dichloro-4-hydroxyphenyl)-N-(4-fluoro-3-(trifluoromethyl)benzyl)-1,2,4-oxadiazole-5-carboxamide], for which the IC50 was 11.2 µM.
Still for that read-out and setting: the value for `O=C(Nc1ccc(Oc2ccc(C(F)(F)F)cc2)cc1)c1nc(-c2cc(Br)c(O)c(Br)c2)no1` [34a, 3-(3,5-dibromo-4-hydroxyphenyl)-N-(4-(4-(trifluoromethyl)phenoxy)phenyl)-1,2,4-oxadiazole-5-carboxamide] was 18.3 µM; that for `CN(Cc1cccc(-c2ncccn2)c1)C(=O)c1nc(-c2cc(Cl)c(O)c(Cl)c2)no1` [176a, 3-(3,5-dichloro-4-hydroxyphenyl)-N-methyl-N-(3-(pyrimidin-2-yl)benzyl)-1,2,4-oxadiazole-5-carboxamide] was 24.6 µM; that for `CC(C)Oc1ccc(CNC(=O)c2nc(-c3cc(Cl)c(O)c(Cl)c3)no2)cc1` [127a, 3-(3,5-dichloro-4-hydroxyphenyl)-N-(4-isopropoxybenzyl)-1,2,4-oxadiazole-5-carboxamide] was 9.95 µM.
Take `O=C(NCc1ccccc1C(F)(F)F)c1nc(-c2cc(Cl)c(O)c(Cl)c2)no1` [129a, 3-(3,5-dichloro-4-hydroxyphenyl)-N-(2-(trifluoromethyl)benzyl)-1,2,4-oxadiazole-5-carboxamide]: the IC50 was found to be 16.7 µM.
The same measure, in the same setting: the value for `CN(Cc1ccc(-c2ccc(C(F)(F)F)cn2)cc1)C(=O)c1nc(-c2cc(Cl)c(O)c(Cl)c2)no1` [174a, 3-(3,5-dichloro-4-hydroxyphenyl)-N-methyl-N-(4-(5-(trifluoromethyl)pyridin-2-yl)benzyl)-1,2,4-oxadiazole-5-carboxamide] was 8.07 µM; that for `O=C(NCc1cccc(Cl)c1)c1noc(-c2cc(Cl)c(O)c(Cl)c2)n1` [86a, N-(3-chlorobenzyl)-5-(3,5-dichloro-4-hydroxyphenyl)-1,2,4-oxadiazole-3-carboxamide] was 2.12 µM.
On to `O=C(c1nc(-c2cc(Cl)c(O)c(Cl)c2)no1)N1CCC(Cc2ccccc2)CC1` [204a, (4-benzylpiperidin-1-yl)(3-(3,5-dichloro-4-hydroxyphenyl)-1,2,4-oxadiazol-5-yl)methanone], for which the IC50 came out at 8.99 µM.
The same measure, in the same setting: the value for `CC(C)(C)C(=O)CN(Cc1cccc(C(F)(F)F)c1)C(=O)c1nc(-c2cc(Cl)c(O)c(Cl)c2)no1` [91a, 3-(3,5-dichloro-4-hydroxyphenyl)-N-(3,3-dimethyl-2-oxobutyl)-N-(3-(trifluoromethyl)benzyl)-1,2,4-oxadiazole-5-carboxamide] was 2.15 µM.
Same read-out and setting: the value for `O=C(NCc1cc(C(F)(F)F)ccc1F)c1noc(-c2cc(Cl)c(O)c(Cl)c2)n1` [155a, 5-(3,5-dichloro-4-hydroxyphenyl)-N-(2-fluoro-5-(trifluoromethyl)benzyl)-1,2,4-oxadiazole-3-carboxamide] was 2.22 µM; that for `O=C(NCc1ccc(OCc2ccccc2)cc1)c1nc(-c2cc(Cl)c(O)c(Cl)c2)no1` [153a, N-(4-(benzyloxy)benzyl)-3-(3,5-dichloro-4-hydroxyphenyl)-1,2,4-oxadiazole-5-carboxamide] was 2.99 µM.

The assay is the same for the next values; noted with them: thiadiazole-containing compounds (Table 12), read-out: IC50.
Turning to `Cc1cc(Cl)ccc1OCc1nnc(-c2cc(Cl)c(O)c(Cl)c2)s1` [4h, 2,6-dichloro-4(5-((4-chloro-2-methylphenoxy)methyl)-1,3,4-thiadiazol-2-yl)phenol], the IC50 is 12.7 µM.

Values taken from US20100144733A1, “Compounds, compositions and methods comprising heteroaromatic derivatives” (Institute for OneWorld Health, priority 2008, published 2010).
